ChEMBL document CHEMBL1123416, “Imidazo[2,1-b]benzothiazoles. 2. New immunosuppressive agents” (1986)

Tests used:
Type in all cases: functional
Mus musculus [1] = assay: Significant suppressive activity of delayed type hypersensitivity (DTH) with out inhibition of humoral immunity in mice by oral administration at dose of 50 mg/kg
Mus musculus [2] = assay: Significant suppressive activity of delayed type hypersensitivity (DTH) with out inhibition of humoral immunity in mice by oral administration at dose of 400 mg/kg
Mus musculus [3] = assay: Compound was tested for its significant suppressive activity of delayed type hypersensitivity (DTH) with out inhibition of humoral immunity in mice by oral administration at dose of 12.5 mg/kg
Mus musculus [4] = assay: Compound was tested for its significant suppressive activity of delayed type hypersensitivity (DTH) with out inhibition of humoral immunity in mice by oral administration at dose of 100 mg/kg
Mus musculus [5] = assay: Compound was tested for its significant suppressive activity of delayed type hypersensitivity (DTH) with out inhibition of humoral immunity in mice by oral administration at dose of 25 mg/kg
Mus musculus [6] = assay: Compound was tested for its significant suppressive activity of delayed type hypersensitivity (DTH) with out inhibition of humoral immunity in mice by oral administration at dose of 200 mg/kg
Mus musculus [7] = assay: The compound was tested for its significant suppressive activity of delayed type hypersensitivity (DTH) with out inhibition of humoral immunity in mice by oral administration at dose of 400 mg/kg

Structure (SMILES) | Increase in ear thickness (Mus musculus [1]) | inhibition in vivo at 50 mg/kg (Mus musculus [1]) | Increase in ear thickness (Mus musculus [2]) | inhibition in vivo at 400 mg/kg (Mus musculus [2]) | also measured
Cc1ccc(-c2cn3c(n2)sc2ccccc23)cc1O | 3.3 1/100mm | 37.7% | 3.2 1/100mm | 39.6% | –
CN(C)c1cccc(-c2cn3c(n2)sc2ccccc23)c1 | – | – | – | – | Increase in ear thickness (Mus musculus [3]): 3.4 1/100mm; inhibition in vivo at 12.5 mg/kg (Mus musculus [3]): 17%; Increase in ear thickness (Mus musculus [4]): 3.2 1/100mm; inhibition in vivo at 100 mg/kg (Mus musculus [4]): 21%
CS(=O)(=O)Nc1cccc(-c2cn3c(n2)sc2ccccc23)c1 | 3.8 1/100mm | 28.3% | 3.6 1/100mm | 32.1% | –
COC(=O)c1cc(-c2cn3c(n2)sc2ccccc23)ccc1O | 4.2 1/100mm | -5% | 2.3 1/100mm | 42.5% | –
CC(=O)Nc1ccc(-c2cn3c(n2)sc2ccccc23)cc1 | 3.6 1/100mm | – | – | – | inhibition in vivo at 25 mg/kg (Mus musculus [5]): -9.1%; Increase in ear thickness (Mus musculus [6]): 3 1/100mm; inhibition in vivo at 200 mg/kg (Mus musculus [6]): 9.1%
O=[N+]([O-])c1cccc(-c2cn3c(n2)sc2ccccc23)c1 | 3.2 1/100mm | 39.6% | 2.1 1/100mm | 60.4% | –
Oc1cccc(-c2cn3c(n2)sc2cc(O)ccc23)c1 | 2.3 1/100mm | 43.9% | 2.4 1/100mm | 41.5% | –
Oc1ccccc1-c1cn2c(n1)sc1ccccc12 | 3.5 1/100mm | 12.5% | 1.4 1/100mm | 65% | –
Oc1ccc(-c2cn3c(n2)sc2ccccc23)cc1 | 3.4 1/100mm | 44.2% | 3.6 1/100mm | 40.9% | –
N#Cc1cccc(-c2cn3c(n2)sc2ccccc23)c1 | 3 1/100mm | 6.3% | 4.7 1/100mm | -46.9% | –
Brc1ccc(-c2cn3c(n2)sc2ccccc23)cc1 | 5.5 1/100mm | -5.8% | 4.9 1/100mm | 5.8% | –
Oc1cccc(-c2cn3c(nc4ccccc43)s2)c1 | 2.3 1/100mm | 43.9% | 3.8 1/100mm | 7.3% | –
Ic1ccc(-c2cn3c(n2)sc2ccccc23)cc1 | 6.4 1/100mm | -23.1% | 5.3 1/100mm | -1.9% | –
Cc1ccc2c(c1)sc1nc(-c3cccc(O)c3)cn12 | 4.5 1/100mm | -12.5% | 3.8 1/100mm | 5% | –
Oc1ccc(-c2cn3c(n2)sc2ccccc23)cc1O | – | – | – | – | Increase in ear thickness (Mus musculus [5]): 2.5 1/100mm; inhibition in vivo at 25 mg/kg (Mus musculus [5]): 21.9%; Increase in ear thickness (Mus musculus [6]): 3.1 1/100mm; inhibition in vivo at 200 mg/kg (Mus musculus [6]): 3.1%
COc1ccccc1-c1cn2c(n1)sc1ccccc12 | 5.5 1/100mm | 3.5% | 4.7 1/100mm | 17.5% | –
CC(=O)Nc1cccc(-c2cn3c(n2)sc2ccccc23)c1 | 3.5 1/100mm | 34% | 3.9 1/100mm | 26% | –
Cc1ccc(-c2cn3c(n2)sc2ccccc23)cc1S(C)(=O)=O | 1.9 1/100mm | 53.7% | 4.9 1/100mm | 3.9% | –
O=[N+]([O-])c1cc(-c2cn3c(n2)sc2ccccc23)ccc1O | 4.1 1/100mm | 22.6% | 4.2 1/100mm | 20.8% | –
COc1cccc(-c2cn3c(n2)sc2ccccc23)c1 | 2.8 1/100mm | 12.5% | 2.1 1/100mm | 34.4% | –
Cc1c(-c2cccc(O)c2)nc2sc3ccccc3n12 | 3.9 1/100mm | 9.3% | 3.6 1/100mm | 16.3% | –
c1ccc(-c2cn3c(n2)sc2ccccc23)cc1 | 6 1/100mm | -3.4% | 5.7 1/100mm | 1.7% | –

Structure (SMILES) | Increase in ear thickness (Mus musculus [1]) | inhibition in vivo at 50 mg/kg (Mus musculus [1]) | Increase in ear thickness (Mus musculus [2]) | inhibition in vivo at 400 mg/kg (Mus musculus [2]) | also measured
Nc1cccc(-c2cn3c(n2)sc2ccccc23)c1 | 4.1 1/100mm | 22.6% | 4.3 1/100mm | 18.9% | –
O=C(O)c1ccc(-c2cn3c(n2)sc2ccccc23)cc1 | 3.8 1/100mm | 33.3% | 2.9 1/100mm | 49.1% | –
Clc1cccc(-c2cn3c(n2)sc2ccccc23)c1 | 5 1/100mm | 3.8% | 5.8 1/100mm | -11.5% | –
Clc1ccccc1-c1cn2c(n1)sc1ccccc12 | 5 1/100mm | 3.8% | 6.3 1/100mm | -21.2% | –
Oc1cc(O)cc(-c2cn3c(n2)sc2ccccc23)c1 | 5.8 1/100mm | -26.1% | 3.6 1/100mm | 21.7% | –
Cc1ccc(-c2cn3c(n2)sc2ccccc23)cc1 | 5.8 1/100mm | -11.5% | – | – | Increase in ear thickness (Mus musculus [7]): 5.3 1/100mm; inhibition in vivo at 400 mg/kg (Mus musculus [7]): -1.9%
COc1ccc(-c2cn3c(n2)sc2ccccc23)cc1 | 5.3 1/100mm | -1.9% | 4.6 1/100mm | 11.5% | –
O=[N+]([O-])c1ccc(-c2cn3c(n2)sc2ccccc23)cc1 | 5.4 1/100mm | 21.7% | 5 1/100mm | 27.5% | –
Oc1cccc(-c2cn3c(n2)oc2ccccc23)c1 | 2.6 1/100mm | 18.8% | 2.9 1/100mm | 9.4% | –
COC(=O)c1ccc(-c2cn3c(n2)sc2ccccc23)cc1 | 6 1/100mm | -5.3% | 4.9 1/100mm | 14% | –
COC(=O)c1cccc(-c2cn3c(n2)sc2ccccc23)c1 | 1.9 1/100mm | 64.2% | 1.9 1/100mm | 64.2% | –
COc1ccc(-c2cn3c(n2)sc2ccccc23)cc1O | 4.9 1/100mm | 7.5% | 4.6 1/100mm | 13.2% | –
Cc1ccc(-c2cn3c(n2)sc2ccccc23)cc1[S+](C)[O-] (stereo not given) | – | – | – | – | Increase in ear thickness (Mus musculus [5]): 3.9 1/100mm; inhibition in vivo at 25 mg/kg (Mus musculus [5]): 4.9%; Increase in ear thickness (Mus musculus [6]): 1.9 1/100mm; inhibition in vivo at 200 mg/kg (Mus musculus [6]): 53.7%
COc1ccc2c(c1)sc1nc(-c3cccc(O)c3)cn12 | 4.8 1/100mm | -20% | 4.9 1/100mm | -22.5% | –
Oc1cc(-c2cn3c(n2)sc2ccccc23)ccc1Cl | 2.4 1/100mm | 44.2% | 3.7 1/100mm | 14% | –
COC(=O)c1cccc(-c2cn3c(n2)sc2cc(O)ccc23)c1 | 3.8 1/100mm | 7.3% | 5.1 1/100mm | -24.4% | –
O=C(O)c1cccc(-c2cn3c(n2)sc2ccccc23)c1 | 2.8 1/100mm | 34.9% | 3.2 1/100mm | 25.6% | –
Clc1ccc(-c2cn3c(n2)sc2ccccc23)cc1 | 4.8 1/100mm | 30.4% | 5.9 1/100mm | 14.5% | –
Fc1ccc(-c2cn3c(n2)sc2ccccc23)cc1 | 5 1/100mm | -3.8% | 5.9 1/100mm | -13.5% | –
O=CNc1cccc(-c2cn3c(n2)sc2ccccc23)c1 | – | – | – | – | Increase in ear thickness (Mus musculus [5]): 2.6 1/100mm; inhibition in vivo at 25 mg/kg (Mus musculus [5]): 39.5%; Increase in ear thickness (Mus musculus [6]): 2.2 1/100mm; inhibition in vivo at 200 mg/kg (Mus musculus [6]): 48.8%
COc1ccc2nc(NC(=O)Nc3ccccc3)sc2c1 [FRENTIZOLE] | 3.5 1/100mm | 42.6% | – | – | –
